Target: T1, human PDE10A full length (Homo sapiens, UniProt Q9Y233)
T1 construct: purchased Enzo Life Science, Lausen, Switzerland SE-534
Assay: PDE10A Scintillation Proximity Assay (SPA), human PDE10A full length assay
Type: biochemical
Conditions: 50 nM cGMP + 50 nM [3H]-cGMP, 20 minutes at room temperature, read-out: PDE10A inhibition IC50
Method: The following test was carried out in order to determine the activity of the compounds of the present invention. PDE10 activity of the compounds of the present invention was determined using a Scintillation Proximity Assay (SPA)-based method similar to the one previously described (Fawcett, L. et al., Proc Natl Acad Sci USA (2000) 97(7):3702-3707).
The human PDE10A full length assay was performed in 96-well micro titer plates. The reaction mixture of 50 μl contained 20 mM HEPES pH=7.5/10 mM MgCl2/0.05 mg/ml BSA (Sigma cat. #A-7906), 50 nM cGMP (Sigma, cat. #G6129) and 50 nM [^3H]-cGMP (GE Healthcare, cat. #TRK392 S.A. 13.2Ci/mmol), 3.75 ng/well PDE10A enzyme (Enzo Life Science, Lausen, Switzerland cat #SE-534) with or without a specific test compound. A range of concentrations of the potential inhibitor was used to generate data for calculating the concentration of inhibitor resulting in 50% of the effect (e.g. IC50, the concentration of the competitor inhibiting PDE10A activity by 50%). Non-specific activity was tested without the enzyme. The reaction was initiated by the addition of the substrate solution (cGMP and [^3H]-cGMP) and allowed to progress for 20 minutes at room temperature. The reaction was terminated by adding 25 μl of YSi-SPA scintillation beads (GE Healthcare, cat. #RPNQ0150) in 18 mM zinc sulphate solution (stop reagent). After 1 h under shaking, the plate was centrifuged one minute at 170 g to allow beads to settle. Afterwards, radioactive counts were measured on a Perkin Elmer TopCount Scintillation plate reader.

T1 sequence (Q9Y233 1-779 isoform Q9Y233-1): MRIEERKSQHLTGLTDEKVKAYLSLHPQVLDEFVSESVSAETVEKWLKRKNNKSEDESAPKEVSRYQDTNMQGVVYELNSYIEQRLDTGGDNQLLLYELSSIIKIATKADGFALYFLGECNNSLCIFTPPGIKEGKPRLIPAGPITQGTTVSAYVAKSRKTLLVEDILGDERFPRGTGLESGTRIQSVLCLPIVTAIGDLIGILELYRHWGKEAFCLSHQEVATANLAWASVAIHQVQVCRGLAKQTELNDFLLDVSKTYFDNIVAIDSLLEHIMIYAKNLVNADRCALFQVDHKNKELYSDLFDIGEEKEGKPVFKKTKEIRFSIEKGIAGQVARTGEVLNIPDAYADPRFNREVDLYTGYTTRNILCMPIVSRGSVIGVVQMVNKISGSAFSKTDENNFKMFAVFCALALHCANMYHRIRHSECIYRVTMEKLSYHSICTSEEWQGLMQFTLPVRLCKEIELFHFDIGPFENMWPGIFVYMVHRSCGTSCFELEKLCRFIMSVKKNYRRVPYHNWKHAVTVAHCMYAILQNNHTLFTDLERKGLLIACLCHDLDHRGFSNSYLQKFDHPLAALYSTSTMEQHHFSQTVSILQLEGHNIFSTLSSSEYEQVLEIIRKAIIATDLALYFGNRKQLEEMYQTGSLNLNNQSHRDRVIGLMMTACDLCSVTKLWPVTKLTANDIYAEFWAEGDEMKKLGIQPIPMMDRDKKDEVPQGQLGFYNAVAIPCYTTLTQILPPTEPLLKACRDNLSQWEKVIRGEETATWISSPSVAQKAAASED

SMILES | IC50 [nM]
CN(CCF)C(=O)c1cnn(C)c1C(=O)Nc1ccn2nc(-c3ccccc3)nc2c1 [Example 26, 2-Methyl-2H-pyrazole-3,4-dicarboxylic acid 4-[(2-fluoro-ethyl)-methyl-amide]3-[(2-phenyl-[1,2,4]triazolo[1,5-a]pyridin-7-yl)-amide]] | 0.43
Cn1ncc(C(=O)N2CCC2)c1C(=O)Nc1ccn2nc(C(=O)NCCC(F)(F)F)nc2c1 [Example 33, 7-(4-(Azetidine-1-carbonyl)-1-methyl-1H-pyrazole-5-carboxamido)-N-(3,3,3-trifluoropropyl)-[1,2,4]triazolo[1,5-a]pyridine-2-carboxamide] | 28.6
Cn1ncc(C(=O)N2CCCC2)c1C(=O)Nc1ccn2nc(N3CCOCC3)nc2c1 [Example 42, 1-Methyl-N-(2-morpholino-[1,2,4]triazolo[1,5-a]pyridin-7-yl)-4-(pyrrolidine-1-carbonyl)-1H-pyrazole-5-carboxamide] | 5.15
CN(C(=O)c1cnn(C)c1C(=O)Nc1ccn2nc(N3CCOCC3)nc2c1)C1CC1 [Example 53, N4-cyclopropyl-N4,1-dimethyl-N5-(2-morpholino-[1,2,4]triazolo[1,5-a]pyridin-7-yl)-1H-pyrazole-4,5-dicarboxamide] | 1.12
CN(CC(F)(F)F)C(=O)c1cnn(C)c1C(=O)Nc1ccn2nc(N3CCOCC3)nc2c1 [Example 54, 2-Methyl-2H-pyrazole-3,4-dicarboxylic acid 4-[methyl-(2,2,2-trifluoro-ethyl)-amide]3-[(2-morpholin-4-yl-[1,2,4]triazolo[1,5-a]pyridin-7-yl)-amide]] | 80.5
CN(C)C(=O)c1nc2cc(NC(=O)c3c(C(=O)N4CCC4)cnn3C)ccn2n1 [Example 62, 7-{[4-(Azetidine-1-carbonyl)-2-methyl-2H-pyrazole-3-carbonyl]-amino}-[1,2,4]triazolo[1,5-a]pyridine-2-carboxylic acid dimethylamide] | 112
COCCN(C)C(=O)c1cnn(C)c1C(=O)Nc1ccn2nc(-c3cccc(OC)c3)nc2c1 [Example 77, 2-Methyl-2H-pyrazole-3,4-dicarboxylic acid 4-[(2-methoxy-ethyl)-methyl-amide]3-{[2-(3-methoxy-phenyl)-[1,2,4]triazolo[1,5-a]pyridin-7-yl]-amide}] | 0.57
CCN(C)C(=O)c1cnn(C)c1C(=O)Nc1ccn2nc(-c3cccc(OC)c3)nc2c1 [Example 79, 2-Methyl-2H-pyrazole-3,4-dicarboxylic acid 4-(ethyl-methyl-amide)3-{[2-(3-methoxy-phenyl)-[1,2,4]triazolo[1,5-a]pyridin-7-yl]-amide}] | 1.73
Cn1ncc(C(=O)N2CCOCC2)c1C(=O)Nc1ccn2nc(-c3cccc(OCCF)c3)nc2c1 [Example 81, 2-Methyl-4-(morpholine-4-carbonyl)-2H-pyrazole-3-carboxylic acid {2-[3-(2-fluoro-ethoxy)-phenyl]-[1,2,4]triazolo[1,5-a]pyridin-7-yl}-amide] | 0.59
CN(C)C(=O)c1cnn(C)c1C(=O)Nc1ccn2nc(-c3cccc(OCCF)c3)nc2c1 [Example 85, 2-Methyl-2H-pyrazole-3,4-dicarboxylic acid 4-dimethylamide 3-({2-[3-(2-fluoro-ethoxy)-phenyl]-[1,2,4]triazolo[1,5-a]pyridin-7-yl}-amide)] | 0.73
CN(C)C(=O)c1cnn(C)c1C(=O)Nc1ccn2nc(-c3cccc(OCF)c3)nc2c1 [Example 86, 2-Methyl-2H-pyrazole-3,4-dicarboxylic acid 4-dimethylamide 3-{[2-(3-fluoromethoxy-phenyl)-[1,2,4]triazolo[1,5-a]pyridin-7-yl]-amide}] | 0.6

More lines, in order of falling IC50, values ahead:

IC50 [nM] | SMILES
26.5 | CN(CCF)C(=O)c1cnn(C)c1C(=O)Nc1ccn2nc(N3CCOCC3)nc2c1 [Example 21, N4-(2-Fluoroethyl)-N4,1-dimethyl-N5-(2-morpholino-[1,2,4]triazolo[1,5-a]pyridin-7-yl)-1H-pyrazole-4,5-dicarboxamide]
7.9 | CC(C)OC(=O)c1cnn(C)c1C(=O)Nc1ccn2nc(-c3ccccc3)nc2c1 [Example 27, Isopropyl 1-methyl-5-(2-phenyl-[1,2,4]triazolo[1,5-a]pyridin-7-ylcarbamoyl)-1H-pyrazole-4-carboxylate]
5.15 | COc1cccc(-c2nc3cc(NC(=O)c4c(C(=O)N5CCOCC5)cnn4C)ccn3n2)c1 [Example 76, 2-Methyl-4-(morpholine-4-carbonyl)-2H-pyrazole-3-carboxylic acid [2-(3-methoxy-phenyl)-[1,2,4]triazolo[1,5-a]pyridin-7-yl]-amide]
3.77 | Cn1ncc(C(=O)N2CC(F)C2)c1C(=O)Nc1ccn2nc(N3CCOCC3)nc2c1 [Example 43, 4-(3-Fluoroazetidine-1-carbonyl)-1-methyl-N-(2-morpholino-[1,2,4]triazolo[1,5-a]pyridin-7-yl)-1H-pyrazole-5-carboxamide]
0.78 | Cn1ncc(C(=O)N2CCOCC2)c1C(=O)Nc1ccn2nc(-c3cccc(OCF)c3)nc2c1 [Example 82, 2-Methyl-4-(morpholine-4-carbonyl)-2H-pyrazole-3-carboxylic acid [2-(3-fluoromethoxy-phenyl)-[1,2,4]triazolo[1,5-a]pyridin-7-yl]-amide]
0.68 | COc1ccccc1-c1nc2cc(NC(=O)c3c(C(=O)N4CCOCC4)cnn3C)ccn2n1 [Example 69, 2-Methyl-4-(morpholine-4-carbonyl)-2H-pyrazole-3-carboxylic acid [2-(2-methoxy-phenyl)-[1,2,4]triazolo[1,5-a]pyridin-7-yl]-amide]
0.63 | CCN(C)C(=O)c1cnn(C)c1C(=O)Nc1ccn2nc(-c3cccc(OCCF)c3)nc2c1 [Example 83, 2-Methyl-2H-pyrazole-3,4-dicarboxylic acid 4-(ethyl-methyl-amide)3-({2-[3-(2-fluoro-ethoxy)-phenyl]-[1,2,4]triazolo[1,5-a]pyridin-7-yl}-amide)]
0.54 | CCN(C)C(=O)c1cnn(C)c1C(=O)Nc1ccn2nc(-c3cccc(OCF)c3)nc2c1 [Example 84, 2-Methyl-2H-pyrazole-3,4-dicarboxylic acid 4-(ethyl-methyl-amide)3-{[2-(3-fluoromethoxy-phenyl)-[1,2,4]triazolo[1,5-a]pyridin-7-yl]-amide}]
0.45 | CN(C(=O)c1cnn(C)c1C(=O)Nc1ccn2nc(-c3cccnc3)nc2c1)C1CC1 [Example 55, 2-Methyl-2H-pyrazole-3,4-dicarboxylic acid 4-(cyclopropyl-methyl-amide)3-[(2-pyridin-3-yl-[1,2,4]triazolo[1,5-a]pyridin-7-yl)-amide]]
0.43 | COCCN(CCOC)C(=O)c1cnn(C)c1C(=O)Nc1ccn2nc(-c3ccccc3)nc2c1 [Example 6, N4,N4-bis(2-methoxyethyl)-1-methyl-N5-(2-phenyl-[1,2,4]triazolo[1,5-a]pyridin-7-yl)-1H-pyrazole-4,5-dicarboxamide]
0.43 | COCCN(C)C(=O)c1cnn(C)c1C(=O)Nc1ccn2nc(-c3cccc(O)c3)nc2c1 [Example 87, 2-Methyl-2H-pyrazole-3,4-dicarboxylic acid 3-{[2-(3-hydroxy-phenyl)-[1,2,4]triazolo[1,5-a]pyridin-7-yl]-amide} 4-[(2-methoxy-ethyl)-methyl-amide]]
0.42 | COCCN(C)C(=O)c1cnn(C)c1C(=O)Nc1ccn2nc(-c3cccc(OCCF)c3)nc2c1 [Example 88, 2-Methyl-2H-pyrazole-3,4-dicarboxylic acid 3-({2-[3-(2-fluoro-ethoxy)-phenyl]-[1,2,4]triazolo[1,5-a]pyridin-7-yl}-amide)4-[(2-methoxy-ethyl)-methyl-amide]]
0.41 | Cn1ncc(C(=O)N2CCOCC2)c1C(=O)Nc1ccn2nc(-c3cccc(O)c3)nc2c1 [Example 80, 2-Methyl-4-(morpholine-4-carbonyl)-2H-pyrazole-3-carboxylic acid [2-(3-hydroxy-phenyl)-[1,2,4]triazolo[1,5-a]pyridin-7-yl]-amide]
0.32 | COc1cccc(-c2nc3cc(NC(=O)c4c(C(=O)N(C)C)cnn4C)ccn3n2)c1 [Example 78, 2-Methyl-2H-pyrazole-3,4-dicarboxylic acid 4-dimethylamide 3-{[2-(3-methoxy-phenyl)[1,2,4]triazolo[1,5-a]pyridin-7-yl]-amide}]
0.31 | COc1cccc(-c2nc3cc(NC(=O)c4c(C(=O)N5CCC5)cnn4C)ccn3n2)c1 [Example 75, 4-(Azetidine-1-carbonyl)-2-methyl-2H-pyrazole-3-carboxylic acid [2-(3-methoxy-phenyl)-[1,2,4]triazolo[1,5-a]pyridin-7-yl]-amide]
0.27 | Cn1ncc(C(=O)N2CCOCC2)c1C(=O)Nc1ccn2nc(-c3ccccc3)nc2c1 [Example 12, 1-Methyl-4-(morpholine-4-carbonyl)-N-(2-phenyl-[1,2,4]triazolo[1,5-a]pyridin-7-yl)-1H-pyrazole-5-carboxamide]
